# Assay results from patent publication US20200024278A1, “COMPOSITION COMPRISING ANTIBIOTIC COMPOUND AND AN HETEROCYCLIC COMPOUND AND THEIR USE IN PREVENTING OR TREATING BACTERIAL INFECTIONS” (MUTABILIS, priority 2016, published 2020).
# Like-named read-outs stand apart in the source and are kept apart here.
# How the values were obtained:
# Assay in all cases: MIC, broth microdilution (CLSI), substance alone or ATB combined with compound at 4 or 8 μg/mL
# PAE 105250 = format: cell-based, P. aeruginosa; details: PAE 105250
# Procedure, shortened: (§1)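 Antibiotic MICs were determined in presence of fixed compound at 4 or 8 μg/mL, and compound MICs alone, by visual growth inhibition. Inoculum 5·10^5 CFU/mL in ca-MHB, incubated 35 °C for 16-20 h per CLSI-M7-A7. Glucose-6-phosphate (25 μg/ml) added when fosfomycin was tested.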
# ECL P99 = format: cell-based, E. cloacae; details: ECL P99; for MIC: Enterobacter cloacae
# Procedure, shortened: as §1
# SPN 49619 = format: cell-based, S. pneumoniae; details: SPN 49619
# Procedure, shortened: as §1
# ECO UFR39 = format: cell-based, E. coli; details: ECO UFR39; for MIC: Escherichia coli
# Procedure, shortened: as §1
# ECO 190317 = format: cell-based, E. coli; details: ECO 190317; for MIC: Escherichia coli
# Procedure, shortened: as §1
# SAU 29213 = format: cell-based, S. aureus; details: SAU 29213
# Procedure, shortened: as §1
# [1] = antibiotic alone, read-out: MIC ATB alone
structure (smiles),measurement,setting,value
"CC1(C)S[C@@H]2[C@H](NC(=O)[C@H](N)c3ccc(O)cc3)C(=O)N2[C@H]1C(=O)O [AMX, Amoxicillin, reference compound]",MIC ATB combined with Example 11 @8 μg/ml,PAE 105250; with Example 11 at 8 μg/ml,>32 µg/mL
same,MIC ATB combined with Example 12 @8 μg/ml,PAE 105250; with Example 12 at 8 μg/ml,>32 µg/mL
same,MIC ATB combined with Example 13 @8 μg/ml,PAE 105250; with Example 13 at 8 μg/ml,>32 µg/mL
same,MIC ATB combined with Example 14 @8 μg/ml,PAE 105250; with Example 14 at 8 μg/ml,>32 µg/mL
same,MIC ATB combined with Example 15 @4 μgml,PAE 105250; with Example 15 at 4 μg/ml,>32 µg/mL
same,MIC ATB combined with Example 16 @4 μg/ml,PAE 105250; with Example 16 at 4 μg/ml,>32 µg/mL
same,MIC,"PAE 105250; Pseudomonas aeruginosa, antibiotic alone, read-out: MIC ATB alone",> 1020 µg/mL
same,MIC ATB combined with Example 1 @8 μg/ml,ECL P99; with Example 1 @8 μg/ml,<0.031 µg/mL
same,MIC ATB combined with Example 1 @8 μg/ml,ECL P99; with Example 1 at 8 μg/ml,<0.031 µg/mL
same,MIC ATB combined with Example 7 @8 μgml,ECL P99; with Example 7 at 8 μg/ml,>32 µg/mL
same,MIC ATB combined with Example 9 @4 μg/ml,ECL P99; with Example 9 @4 μg/ml,<0.031 µg/mL
same,MIC ATB combined with Example 9 @4 μg/ml,ECL P99; with Example 9 at 4 μg/ml,<0.031 µg/mL
same,MIC ATB combined with Example 11 @8 μg/ml,ECL P99; with Example 11 at 8 μg/ml,<0.031 µg/mL
same,MIC ATB combined with Example 12 @8 μg/ml,ECL P99; with Example 12 at 8 μg/ml,<0.031 µg/mL
same,MIC ATB combined with Example 13 @8 μg/ml,ECL P99; with Example 13 at 8 μg/ml,>32 µg/mL
same,MIC ATB combined with Example 14 @8 μg/ml,ECL P99; with Example 14 at 8 μg/ml,<0.031 µg/mL
same,MIC ATB combined with Example 15 @4 μgml,ECL P99; with Example 15 at 4 μg/ml,<0.031 µg/mL
same,MIC ATB combined with Example 16 @4 μg/ml,ECL P99; with Example 16 at 4 μg/ml,<0.031 µg/mL
same,MIC,ECL P99; [1],> 1020 µg/mL
same,MIC,"ECL P99; substance alone, read-out: MIC",> 1020 µg/mL
same,MIC ATB combined with Example 7 @8 μgml,SPN 49619; with Example 7 at 8 μg/ml,<=0.031 μg/mL
same,MIC ATB combined with Example 9 @4 μg/ml,SPN 49619; with Example 9 @4 μg/ml,<0.031 µg/mL
same,MIC ATB combined with Example 9 @4 μg/ml,SPN 49619; with Example 9 at 4 μg/ml,<0.031 µg/mL
same,MIC ATB combined with Example 11 @8 μg/ml,SPN 49619; with Example 11 at 8 μg/ml,<0.031 µg/mL
same,MIC ATB combined with Example 12 @8 μg/ml,SPN 49619; with Example 12 at 8 μg/ml,<0.031 µg/mL
same,MIC ATB combined with Example 13 @8 μg/ml,SPN 49619; with Example 13 at 8 μg/ml,<=0.031 μg/mL
same,MIC ATB combined with Example 14 @8 μg/ml,SPN 49619; with Example 14 at 8 μg/ml,<0.031 µg/mL
same,MIC ATB combined with Example 15 @4 μgml,SPN 49619; with Example 15 at 4 μg/ml,<0.031 µg/mL
same,MIC ATB combined with Example 16 @4 μg/ml,SPN 49619; with Example 16 at 4 μg/ml,<0.031 µg/mL
same,MIC ATB combined with Example 1 @8 μg/ml,ECO UFR39; with Example 1 @8 μg/ml,<0.031 µg/mL
same,MIC ATB combined with Example 1 @8 μg/ml,ECO UFR39; with Example 1 at 8 μg/ml,<0.031 µg/mL
same,MIC ATB combined with Example 7 @8 μgml,ECO UFR39; with Example 7 at 8 μg/ml,<0.031 µg/mL
same,MIC ATB combined with Example 9 @4 μg/ml,ECO UFR39; with Example 9 @4 μg/ml,<0.031 µg/mL
same,MIC ATB combined with Example 9 @4 μg/ml,ECO UFR39; with Example 9 at 4 μg/ml,<0.031 µg/mL
same,MIC ATB combined with Example 11 @8 μg/ml,ECO UFR39; with Example 11 at 8 μg/ml,<0.031 µg/mL
same,MIC ATB combined with Example 12 @8 μg/ml,ECO UFR39; with Example 12 at 8 μg/ml,<0.031 µg/mL
same,MIC ATB combined with Example 13 @8 μg/ml,ECO UFR39; with Example 13 at 8 μg/ml,<0.031 µg/mL
same,MIC ATB combined with Example 14 @8 μg/ml,ECO UFR39; with Example 14 at 8 μg/ml,<0.031 µg/mL
same,MIC ATB combined with Example 15 @4 μgml,ECO UFR39; with Example 15 at 4 μg/ml,<0.031 µg/mL
same,MIC ATB combined with Example 16 @4 μg/ml,ECO UFR39; with Example 16 at 4 μg/ml,<0.031 µg/mL
same,MIC,ECO UFR39; [1],> 1020 µg/mL
same,MIC,"ECO UFR39; substance alone, read-out: MIC",> 1020 µg/mL
same,MIC ATB combined with Example 1 @8 μg/ml,ECO 190317; with Example 1 @8 μg/ml,<0.031 µg/mL
same,MIC ATB combined with Example 1 @8 μg/ml,ECO 190317; with Example 1 at 8 μg/ml,<0.031 µg/mL
same,MIC ATB combined with Example 7 @8 μgml,ECO 190317; with Example 7 at 8 μg/ml,<0.031 µg/mL
same,MIC ATB combined with Example 9 @4 μg/ml,ECO 190317; with Example 9 @4 μg/ml,<0.031 µg/mL
same,MIC ATB combined with Example 9 @4 μg/ml,ECO 190317; with Example 9 at 4 μg/ml,<0.031 µg/mL
same,MIC ATB combined with Example 11 @8 μg/ml,ECO 190317; with Example 11 at 8 μg/ml,<0.031 µg/mL
same,MIC ATB combined with Example 12 @8 μg/ml,ECO 190317; with Example 12 at 8 μg/ml,<0.031 µg/mL
same,MIC ATB combined with Example 13 @8 μg/ml,ECO 190317; with Example 13 at 8 μg/ml,<0.031 µg/mL
same,MIC ATB combined with Example 14 @8 μg/ml,ECO 190317; with Example 14 at 8 μg/ml,<0.031 µg/mL
same,MIC ATB combined with Example 15 @4 μgml,ECO 190317; with Example 15 at 4 μg/ml,<0.031 µg/mL
same,MIC ATB combined with Example 16 @4 μg/ml,ECO 190317; with Example 16 at 4 μg/ml,<0.031 µg/mL
same,MIC,ECO 190317; [1],> 1020 µg/mL
same,MIC,"ECO 190317; substance alone, read-out: MIC",> 1020 µg/mL
same,MIC ATB combined with Example 1 @8 μg/ml,SAU 29213; with Example 1 @8 μg/ml,0.25 µg/mL
same,MIC ATB combined with Example 1 @8 μg/ml,SAU 29213; with Example 1 at 8 μg/ml,0.25 µg/mL
same,MIC ATB combined with Example 9 @4 μg/ml,SAU 29213; with Example 9 @4 μg/ml,<0.031 µg/mL
same,MIC ATB combined with Example 9 @4 μg/ml,SAU 29213; with Example 9 at 4 μg/ml,<0.031 µg/mL
same,MIC ATB combined with Example 11 @8 μg/ml,SAU 29213; with Example 11 at 8 μg/ml,<0.031 µg/mL
same,MIC ATB combined with Example 12 @8 μg/ml,SAU 29213; with Example 12 at 8 μg/ml,<0.031 µg/mL
same,MIC ATB combined with Example 14 @8 μg/ml,SAU 29213; with Example 14 at 8 μg/ml,<0.031 µg/mL
same,MIC ATB combined with Example 15 @4 μgml,SAU 29213; with Example 15 at 4 μg/ml,<0.031 µg/mL
same,MIC ATB combined with Example 16 @4 μg/ml,SAU 29213; with Example 16 at 4 μg/ml,<0.031 µg/mL
same,MIC,"SAU 29213; Staphylococcus aureus, antibiotic alone, read-out: MIC ATB alone",2 µg/mL
